Results from patent publication US20140113904A1, “TREATMENT OF CANCER WITH TOR KINASE INHIBITORS” (SIGNAL PHARMACEUTICALS, LLC, priority 2012, published 2014).

How the values were obtained:
Assay type in all cases: cell-based, human
[1] = tested on: 4E-BP1(T46); experiment: Phospho-4E-BP1(T46) in PC3 cell lysates, Luminex multiplex; conditions: PC3, 1 hour exposure; read-out: p-4E-BP1(T46) IC50
Text: (§1) The direct substrate for TORC1 was 4E-BP 1(T46) and indirect downstream substrate was S6RP(S235/S236). The direct substrate for TORC2 was Akt(S473) and indirect downstream substrates measured were GSK3β(S9) and PRAS40(T246). Additionally, the phosphorylation status of Akt(T308), a phosphorylation site for PDK1 was monitored.
(§2) The multiplex Luminex assay format differs from conventional enzyme-linked immunosorbent assay (ELISA) in that the multiplex capture antibody is attached to a polystyrene bead whereas the ELISA capture antibody is attached to the microplate well. The use of the suspension bead-based technology enables the multiplexing capabilities of the Luminex assays. The xMAP® technology uses 5.6 micron polystyrene microspheres, which are internally dyed with red and infrared fluorophores of differing intensities. Each bead is given a unique number, or bead region, allowing differentiation of one bead from another. Beads covalently bound to different specific antibodies can be mixed in the same assay, utilizing a 96-well microplate format. At the completion of the sandwich immunoassay, beads can be read, using the Luminex 100™ or Luminex 200 detection system, in single-file by dual lasers for classification and quantification of each analyte. […]

[2] = tested on: GSK3β(S9); experiment: Phospho-GSK3β(S9) in PC3 cell lysates, Luminex multiplex; conditions: PC3, 1 hour exposure; read-out: p-GSK3β (S9) IC50
Text: as §1, §2

[3] = tested on: PC3 cells; experiment: WST-1 cell proliferation assay (Compound 1, rapamycin); conditions: read-out: Compound 1 Growth Inhibition IC50; PC3, 3 days
Experimental: All test wells were in triplicate on the plate and in a final volume of 200 μL. The final concentration of DMSO in all wells was 0.2%. […] All growth inhibition experiments were repeated on different occasions at least twice. Potency was determined from calculating the IC50 value from the data describing the growth inhibition curve. A reference compound was included in each plate assay to monitor inter-assay variation and the IC50 from the reference was used as part of the acceptance criteria for the assay.
Next, compound was added to the designated well at a dilution of 1:10 (i.e., 20 μL of the diluted compound was added to 180 μL of culture media in each well). The final dilution of compound was 1:500 which yielded a final DMSO concentration of 0.2% in each well. All concentrations were performed in triplicate. […] Absorbance was measured at 450 nm on the VICTOR™ X2 multilabel plate reader (PerkinElmer).
Raw data was saved as a text file and then entered into Activity Base (Cell-based SAR; Prolif-MTT, MTT-6pt-5plates unfixed fit. Version2). The software (XLfit from IDBS) calculated the percent inhibition at each compound concentration by normalizing to the DMSO control values for each set of triplicate wells. Percent inhibition curves were plotted and IC50 values calculated.
All data was analyzed using XLfit from IDBS. […]

IC50 [1]: 410 nM | IC50 [2]: 230 nM | IC50 [3]: 110 nM
SMILES: CO[C@H]1CC[C@H](N2C(=O)CNc3ncc(-c4ccc(C(C)(C)O)nc4)nc32)CC1 [Compound 1, 7-(6-(2-hydroxypropan-2-yl)pyridin-3-yl)-1-((1r,4r)-4-methoxycyclohexyl)-3,4-dihydropyrazino-[2,3-b]pyrazin-2(1H)-one]
